Patent US12644840B2, “Pathogenic susceptibility assessment based on autofluoresence” (Adiuvo D[…] Limited, priority 2021, dated 2026)

What was measured:
[1] = system: Mycobacterium tuberculosis; test: Autofluorescence-based susceptibility testing of positive sputum samples; assay type: cell-based
Pseudomonas aeruginosa = conditions: concentration added to sensitive and resistant strain wells; imaged at 0th and 4th hour; cited from earlier work

Structure (SMILES)	MIC [1] [µg/mL]	Minimum Inhibitory Concentration (MIC) Value (Pseudomonas aeruginosa) [µg/mL]
NC[C@H]1O[C@H](O[C@H]2[C@H](O)[C@@H](O[C@H]3O[C@H](CO)[C@@H](O)[C@H](N)[C@H]3O)[C@H](N)C[C@@H]2N)[C@H](O)[C@@H](O)[C@@H]1O [kanamycin]	> 3	
C[C@@H](O)[C@H]1C(=O)N2C(C(=O)O)=C(S[C@@H]3CN[C@H](C(=O)N(C)C)C3)[C@H](C)[C@H]12 [meropenem]		4
